Assay [1] concerns the target WT human STING isoform (THP-1-Dual KI-hSTING-R232 cells) (Homo sapiens (Human), UniProt Q86WV6, H232R). Nature of the assay: THP-1-Dual KI-hSTING-R232 reporter cell line assay. It is filed as cell-based. The conditions noted are these: 24 h incubation, QUANTI-Luc luminescence. The method, then: (§1) THP-1 STING Lucia ISG cells (InvivoGen #thpI-isg) were cultured in RPMI-1640 containing 2 mM L-glutamine, 25 mM HEPES, 100 μg/mL Normocin (InvivoGen) and 10% heat-inactivated FBS. Cells were seeded at a density of 7×10^5 cells/mL, maintained at 37° C./5% CO2, and passaged every 3-4 days. Selection pressure was maintained by the addition of 100 μg/mL Zeocin every second passage.
(§2) Assay conditions: cells were harvested and resuspended at a concentration of 5×10^5 cells/mL in fresh growth media. Of this cell preparation 20 μL per well was dispensed into 384 well cell culture plates (Greiner, #781098X) and incubated at 37° C./5% CO2 for 2 hours. Concentration Response Curves (commonly 11 doses) were prepared by 2.5 fold serial dilution starting from 10 mM compound stock solution in DMSO. Compound dilutions were transferred into the cell culture plates using a pintool (0.1 μL transfer), control wells were matched for DMSO. Positive control wells received ML RR—S2 CDA (Med Chem Express HY12885B) in 5 μL of media to a final concentration of 40 μM. All other wells received additional 5 μL of media only to equalise volume. The plates were incubated for 24 h at 37° C./5% CO2.
(§3) For the detection step, QUANTI-Luc (InvivoGen #rep-qlc1) was prepared according to manufacturer's instruction and 10 μL were added per well to the culture plates. Plates were shaken for ten seconds on an orbital shaker and left in the dark at room temperature for two minutes, before luminescence was read on a Perkin Elmer Envision plate reader.
(§4) Data analysis: Luminescence raw data was normalised % activity relative to the signal of the positive control wells and negative control wells which were not treated with compound. The following formula was used to calculate normalised % activity from raw signals: % activity=(sample−negative)/(positive−negative)
(§5) The THP-1 STING Lucia ISG cell EC50 provides an assessment of activity at the human HAQ isoform of STING. For assessing compound activity against the WT human STING isoform, an equivalent method was conducted where the cells used were THP-1-Dual KI-hSTING-R232 (InvivoGen #thpd-r232).

The target in assay [2] is human HAQ isoform of STING (THP-1 STING Lucia ISG cells) (Homo sapiens (Human), UniProt Q86WV6, G230A/H232R/R293Q/R71H). Nature of the assay: THP-1 STING Lucia ISG reporter cell line assay. The class given is cell-based. The conditions noted are these: 24 h incubation, QUANTI-Luc luminescence. How it is done:
as §1, §2, §3, §4, §5

Assay [3] concerns the target human STING (WT) (Homo sapiens (Human), UniProt Q86WV6, H232R). The assay can be described thus: Differential scanning fluorimetry (DSF), huSTING (WT). The class given is binding. Particulars: read-out: DSF huSTING (WT) ΔTm (° C.). How it is done: (§6) Biophysical experiments were performed with three different recombinant human STING protein variants designated according to allelic nomenclature of Yi et al., (2013). […] These were ligated into a modified pET43a E. coli expression vector designed to encode N-terminal His tag followed by tobacco etch virus protease (TEV) cleavage site and a STING gene sequence. The resulting protein sequences for the three allelic variants are listed below: […] Cultures were then cooled to 16° C. and protein expression induced by the addition of isopropyl β-D-1-thiogalactopyranoside to a final concentration of 0.5 mM and the cultures shaken overnight for further 16 hours. Following expression, cell cultures were centrifuged at 5000×g for 20 min and cell pellet stored frozen at −70° C. Protein purification was initiated by thawing the cell pellet in Lysis buffer (25 mM Tris-HCl pH 8.0, 300 mM NaCl, 5 mM DTT, 2 mM MgCl2, 10 mM imidazole, 0.5 mg/ml lysozyme, benzonase endonuclease [EMD Millipore], 1 mM PMSF, complete protease inhibitor tablets EDTA-free [Roche]) using a ratio of 7 ml of buffer per 1 g of cells. Cells were further lysed by 3 passes through an ice cooled Avestin C5 cell crusher and then centrifuged at 48,000×g at 4° C. […] The IMAC column was then sequentially washed with IMAC Wash buffer 1 and IMAC Wash buffer 2 (25 mM Tris-HCl pH 8.0, 300 mM NaCl, 5 mM DTT, 20 mM Imidazole) and bound His-TEV-hSTING protein eluted with IMAC Elution buffer (25 mM Tris-HCl pH 8.0, 300 mM NaCl, 5 mM DTT, 250 mM Imidazole). […] Differential scanning fluorimetry (DSF) is a rapid screening method for identifying low-molecular-weight ligands that bind and, in doing so, stabilize (or sometimes destabilize) purified proteins (Niesen 2007). DSF monitors thermal unfolding of protein in the presence of a fluorescent dye and is typically performed using a real-time PCR instrument. The temperature at which a protein unfolds is measured by an increase in the fluorescence of a dye with affinity for hydrophobic parts of the protein that are gradually being exposed during unfolding. The fluorescence of the dye is quenched in aqueous environments, but when the dye associates with hydrophobic sites on unfolded protein, its fluorescence increases. The fluorescence intensity is plotted as a function of the temperature, generating a sigmoidal curve that can be described by a two-state transition. The inflection point of the transition curve (Tm) is calculated using simple equations such as that of Boltzmann. Thermal stability of STING protein (with and without bound ligand) was measured using previously described methodology (Seabrook & Newman, 2013), with samples tested in triplicate using 96-well PCR microplate (AB Gene, ABGAB-0600/W). […] Sealed plates were placed into Bio-Rad CFX96/C1000 thermocycler and FRET scanning mode (λ^excitation of 490 nm and reads at a λ^emission of 570 nm). Melting curves were recorded from 20° C. to 100° C. in 0.5° C. increments every 30 seconds with a read at each increment. Data were analysed using “Meltdown analysis” protocol described by Rosa (2015).
On the technique in general: Differential scanning fluorimetry follows unfolding on heating by fluorescence.

Assay [4] concerns the target human STING (HAQ) (Homo sapiens, UniProt Q86WV6, G230A/H232R/R293Q). The assay can be described thus: Differential scanning fluorimetry (DSF), huSTING (HAQ). The class given is binding. Particulars: read-out: DSF huSTING (HAQ) ΔTm (° C.). The method, then: as §6
Setting [5] is: 2 μM protein, compound 100 μM, Tm with ligand minus Tm of protein alone (1% DMSO).

Where two headings read alike, the source gives them in different places.

Chain of human HAQ isoform of STING (THP-1 STING Lucia ISG cells) (Q86WV6 whole entry R71H/G230A/H232R/R293Q, canonical isoform): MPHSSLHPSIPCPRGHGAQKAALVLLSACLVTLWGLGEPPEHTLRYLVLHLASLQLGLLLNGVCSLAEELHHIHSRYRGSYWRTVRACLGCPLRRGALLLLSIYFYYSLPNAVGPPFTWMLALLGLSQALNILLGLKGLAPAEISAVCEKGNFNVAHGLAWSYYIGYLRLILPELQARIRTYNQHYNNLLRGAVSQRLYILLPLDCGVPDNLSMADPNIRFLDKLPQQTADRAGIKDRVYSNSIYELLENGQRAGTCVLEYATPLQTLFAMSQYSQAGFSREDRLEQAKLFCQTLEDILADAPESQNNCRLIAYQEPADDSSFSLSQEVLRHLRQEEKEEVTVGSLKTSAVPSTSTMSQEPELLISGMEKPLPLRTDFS
Chain of human STING (HAQ) (Q86WV6 whole entry G230A/H232R/R293Q, looked up): as the sequence (Q86WV6 whole entry R71H/G230A/H232R/R293Q, canonical isoform) above, with H71R counted along it
Chain of human STING (WT) (Q86WV6 other isoform, or with tags, fused parts or gaps, stated change not applied): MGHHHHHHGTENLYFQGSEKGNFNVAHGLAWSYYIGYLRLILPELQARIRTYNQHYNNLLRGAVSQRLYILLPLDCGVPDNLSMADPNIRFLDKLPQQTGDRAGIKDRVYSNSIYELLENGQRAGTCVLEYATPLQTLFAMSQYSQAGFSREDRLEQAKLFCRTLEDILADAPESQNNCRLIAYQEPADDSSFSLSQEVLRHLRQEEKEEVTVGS
Chain of WT human STING isoform (THP-1-Dual KI-hSTING-R232 cells) (Q86WV6 whole entry H232R, canonical isoform): as the sequence (Q86WV6 whole entry R71H/G230A/H232R/R293Q, canonical isoform) above, with H71R, A230G, Q293R counted along it

As a reminder, the EC50 is the concentration needed to bring the measured effect to its halfway point. A word on the ΔTm: it is the change in melting temperature against a reference sample. For the compound `COc1c(C(N)=O)ccc2c1nc(-c1cccc(Br)c1C(=O)O)n2CCn1c(-c2cccc(Br)c2C(=O)O)nc2c(OC)c(C(N)=O)ccc21` [Example 36, 6,6′-(Ethane-1,2-diylbis(5-carbamoyl-4-methoxy-1H-benzo[d]imidazole-1,2-diyl))bis(2-bromobenzoic acid)], the 50% effective concentration (EC50) in assay [1] and in assay [2] was over 40000 nM each time. The ΔTm at 100 µM stood at 2.04 °C in assay [3] (setting [5]) and 5.24 °C in assay [4] (setting [5]).
On to `COc1c(C(N)=O)ccc2c1nc(-c1ccc(Cl)cc1C(=O)O)n2C/C=C/Cn1c(-c2ccc(Cl)cc2C(=O)O)nc2c(OC)c(C(N)=O)ccc21` [Example 34, (E)-6,6′-(But-2-ene-1,4-diylbis(5-carbamoyl-4-methoxy-1H-benzo[d]imidazole-1,2-diyl))bis(3-chlorobenzoic acid)], for which the EC50 in assay [1] and in assay [2] was over 40000 nM throughout. For the same compound, the ΔTm at 100 µM was -2.39 °C in assay [3] (setting [5]) and 0.49 °C in assay [4] (setting [5]).
Regarding `COc1c(C(N)=O)ccc2c1nc(-c1c(F)cc(Cl)cc1-c1nn[nH]n1)n2CCn1c(-c2c(F)cc(Cl)cc2-c2nn[nH]n2)nc2c(OC)c(C(N)=O)ccc21` [Example 46, 1,1′-(Ethane-1,2-diyl)bis(2-(4-chloro-2-fluoro-6-(2H-tetrazol-5-yl)phenyl)-4-methoxy-1H-benzo[d]imidazole-5-carboxamide)], the EC50 in assay [1] is 195 nM; in assay [2], 218 nM. Also, the shift in melting temperature (ΔTm) at 100 µM in assay [3] (setting [5]) is 14.4 °C; in assay [4] (setting [5]) it was 28.6 °C.
Regarding `COc1c(C(N)=O)ccc2c1nc(-c1c(F)cc(F)cc1C(=O)O)n2CCn1c(-c2c(F)cc(F)cc2C(=O)O)nc2c(OC)c(C(N)=O)ccc21` [Example 16, 2,2′-(Ethane-1,2-diylbis(5-carbamoyl-4-methoxy-1H-benzo[d]imidazole-1,2-diyl))bis(3,5-difluorobenzoic acid)], the results for the EC50 in assay [1] and in assay [2] were 840 nM and 738 nM, respectively. The shift in melting temperature (ΔTm) at 100 µM in assay [3] (setting [5]) was found to be 7.95 °C; in assay [4] (setting [5]) it was 17.2 °C.
Consider `NC(=O)c1ccc2c(c1)nc(-c1cc(Br)ccc1C(=O)O)n2CCn1c(-c2cc(Br)ccc2C(=O)O)nc2cc(C(N)=O)ccc21` [Example 3, 2,2′-(Ethane-1,2-diylbis(5-carbamoyl-1H-benzo[d]imidazole-1,2-diyl))bis(4-bromobenzoic acid)], for which the EC50 in assay [1] and in assay [2] was over 40000 nM throughout. For the same compound, the thermal shift (ΔTm) at 100 µM in assay [3] (setting [5]) was -0.02 °C; in assay [4] (setting [5]), 2.66 °C.
For `COc1c(C(N)=O)cc(F)c2c1nc(-c1ccc(Cl)cc1C(=O)O)n2CCn1c(-c2ccc(Cl)cc2C(=O)O)nc2c(OC)c(C(N)=O)cc(F)c21` [Example 20, 6,6′-(Ethane-1,2-diylbis(5-carbamoyl-7-fluoro-4-methoxy-1H-benzo[d]imidazole-1,2-diyl))bis(3-chlorobenzoic acid)], the concentration giving a half-maximal response (EC50) came out at 2780 nM in assay [1] and 1300 nM in assay [2]. Besides, the ΔTm at 100 µM was -3 °C in assay [3] (setting [5]) and 3.69 °C in assay [4] (setting [5]).
For the compound `CCc1ccc(-c2nc3c(OC)c(C(N)=O)ccc3n2CCn2c(-c3ccc(CC)cc3C(=O)O)nc3c(OC)c(C(N)=O)ccc32)c(C(=O)O)c1` [Example 33, 6,6′-(Ethane-1,2-diylbis(5-carbamoyl-4-methoxy-1H-benzo[d]imidazole-1,2-diyl))bis(3-ethylbenzoic acid)], the EC50 in assay [1] and in assay [2] was over 40000 nM throughout. The shift in melting temperature (ΔTm) at 100 µM in assay [3] (setting [5]) was 1.17 °C; in assay [4] (setting [5]), 4.06 °C.
For `COc1c(C(N)=O)ccc2c1nc(-c1c(Cl)cccc1C(=O)O)n2CCn1c(-c2c(Cl)cccc2C(=O)O)nc2c(OC)c(C(N)=O)ccc21` (racemic) [Example 22, 2,2′-(Ethane-1,2-diylbis(5-carbamoyl-4-methoxy-1H-benzo[d]imidazole-1,2-diyl))bis(3-chlorobenzoic acid)], the EC50 in assay [1] is 1450 nM; in assay [2] it was 1530 nM. Also, the ΔTm at 100 µM is 17 °C in assay [3] (setting [5]) and 28.2 °C in assay [4] (setting [5]).
Consider `COc1c(C(N)=O)ccc2c1nc(-c1ccc(Cl)cc1C(=O)O)n2CCCn1c(-c2ccc(Cl)cc2C(=O)O)nc2c(OC)c(C(N)=O)ccc21` [Example 35, 6,6′-(Propane-1,3-diylbis(5-carbamoyl-4-methoxy-1H-benzo[d]imidazole-1,2-diyl))bis(3-chlorobenzoic acid)], for which the EC50 in assay [1] and in assay [2] was over 40000 nM in each case. Further, the shift in melting temperature (ΔTm) at 100 µM in assay [3] (setting [5]) was -2.51 °C; in assay [4] (setting [5]), 1.28 °C.
With `COc1c(C(N)=O)ccc2c1nc(-c1cc(F)c(F)cc1C(=O)O)n2CCn1c(-c2cc(F)c(F)cc2C(=O)O)nc2c(OC)c(C(N)=O)ccc21` [Example 15, 6,6′-(Ethane-1,2-diylbis(5-carbamoyl-4-methoxy-1H-benzo[d]imidazole-1,2-diyl))bis(3,4-difluorobenzoic acid)], the concentration for a half-maximal effect (EC50) in assay [1] stood at 2460 nM; in assay [2], 2560 nM. Also, the thermal shift (ΔTm) at 100 µM was -0.91 °C in assay [3] and 4.78 °C in assay [4].
For `COc1c(C(N)=O)ccc2c1nc(-c1c(F)cc(F)cc1-c1nn[nH]n1)n2CCn1c(-c2c(F)cc(F)cc2-c2nn[nH]n2)nc2c(OC)c(C(N)=O)ccc21` [Example 43, 1,1′-(Ethane-1,2-diyl)bis(2-(2,4-difluoro-6-(2H-tetrazol-5-yl)phenyl)-4-methoxy-1H-benzo[d]imidazole-5-carboxamide)], the EC50 was found to be 440 nM in assay [1] and 574 nM in assay [2]. Further, the shift in melting temperature (ΔTm) at 100 µM in assay [3] (setting [5]) is 9.87 °C; in assay [4] (setting [5]), 22.2 °C.
On the same counts, the results for `COc1c(C(N)=O)ccc2c1nc(-c1c(F)cc(Cl)cc1Br)n2CCn1c(-c2c(F)cc(Cl)cc2Br)nc2c(OC)c(C(N)=O)ccc21` [Example 45, 1,1′-(Ethane-1,2-diyl)bis(2-(2-bromo-4-chloro-6-fluorophenyl)-4-methoxy-1H-benzo[d]imidazole-5-carboxamide)] are 3250 nM, 6790 nM, -0.34 °C and 1.24 °C.
